{"source": "ChEMBL document CHEMBL5726672", "about": "“Morpholin-pyridine derivatives” (2017)", "target": "Trace amine-associated receptor 1 (Mus musculus, UniProt Q923Y8)", "sequence (Q923Y8 whole entry)": "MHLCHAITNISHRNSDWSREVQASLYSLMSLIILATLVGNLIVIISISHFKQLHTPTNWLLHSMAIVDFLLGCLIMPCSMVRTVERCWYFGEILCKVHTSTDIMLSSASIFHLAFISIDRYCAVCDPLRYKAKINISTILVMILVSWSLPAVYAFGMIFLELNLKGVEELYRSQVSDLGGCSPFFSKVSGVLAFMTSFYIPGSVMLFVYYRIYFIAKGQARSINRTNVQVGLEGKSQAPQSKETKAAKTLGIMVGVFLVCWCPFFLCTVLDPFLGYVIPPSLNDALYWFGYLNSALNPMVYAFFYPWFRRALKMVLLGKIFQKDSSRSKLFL", "experiment": "Radioligand Binding Assay : HEK-293 cells stably expressing mouse TAAR1 were maintained at 37° C. and 5% CO2 in DMEM high glucose medium, containing fetal calf serum (10%, heat inactivated for 30 min at 56° C.), penicillin/streptomycin (1%), and 375 μg/ml geneticin (Gibco). Cells were released from culture flasks using trypsin/EDTA, harvested, washed twice with ice-cold PBS (without Ca2+ and Mg2+), pelleted at 1,000 rpm for 5 min at 4° C., frozen and stored at −80° C. Frozen pellets were suspended in 20 ml HEPES-NaOH (20 mM, pH 7.4) containing 10 mM EDTA and homogenized with a Polytron (PT 6000, Kinematica) at 14′000 rpm for 20 s. The homogenate was centrifuged at 48,000×g for 30 min at 4° C. Subsequently, the supernatant was removed and discarded, and the pellet resuspended in 20 ml HEPES-NaOH (20 mM, pH 7.4) containing 0.1 mM EDTA using the Polytron (20 s at 14′000 rpm). This procedure was repeated and the final pellet resuspended in HEPES-NaOH containing 0.1 mM EDTA and homogenized using the Polytron. Typically, aliquots of 2 ml membrane portions were stored at −80° C. With each new membrane batch the dissociation constant (Kd) was determined via a saturation curve.", "data": [{"smiles": "CCCc1n[nH]c(C(=O)Nc2ccc(C3CNCCO3)nc2)c1Cl", "note": "(racemic)", "values": [{"measurement": "Ki", "value": 5.6, "unit": "nM"}]}]}
